In patent US20080255206A1, “Rxr Agonists and Antagonists, Alone or in Combination with Ppar Ligands, in the Treatment of Metabolic and Cardiovascular Diseases” (priority 2005, published 2008):

Tests used:
[1] = tested on: myeloperoxidase (MPO) activity; experiment: Semi chronic inflammation of mouse ears, MPO activity; assay type: in vivo, C57BL/6 mice; details: 11 d
Protocol: (§1) […] mice of the C57BL/6 strain are used. Inflammation is induced on mouse ears with either AtRA, 9-cis RA or TPA by topical application. Inflammation is measured objectively by determination of the activity of myeloperoxidase (MPO) being directly correlated to the infiltration of polymorphonuclear white blood cells and by the determination of mRNA expression of c-jun, a protein implicated in the AP-1 transduction pathway according to known methods, see e.g. P. L. Stanley et al., Skin Pharmacol. 4, 262-271 (1991) (MPO assay), N. Basset-Sequin et al., J. Invest. Dermatol. 94, 418-422 (1990), F. J. Rauscher et al., Cell 52, 471-480 […], P. Sassone-Corn et al., Nature 326, 507-510 (1987), and M. Pfahl, Endocr. Rev. 14, 651-658, 1993, which are incorporated by reference regarding the experimental method.
(§2) In the “acute inflammation” test, mice are treated topically (epicutaneously), orally or intraperitoneally, daily for 4 days. In the “semi chronic inflammation” test, mice are treated topically according to the schedules given below. For each experiment, a group of at least 4 mice of both sexes are used in the defined condition, regarding placebo, vehicle control, compound, topical formulation, oral formulation, dosage and concentration. The topical vehicle consists of ethanol/PEG 400/water (3:1:1).
(§3) The anti-inflammatory effect of topical RXR antagonists is tested by determination of myeloperoxidase activity in % of vehicle controls. The effect of the RXR antagonist compound 15 is also compared with the well known anti-inflammatory effect of the two corticosteroids, clobetasol dipropionate and betamethasone propionate. For induction of inflammation, AtRA and TPA are applied topically to the skin and the administration of the test compounds, the RXR antagonist compound 15 and the two corticosteroids are given in the following order, according to the schedule, described in: Skin Pharmacol 1991; 4 (4): 262-271, Stanley P L. et.al.: RA or TPA is administered on days 0, 2, 4, 7 and 9, compound 15 or corticosteroids are administered twice daily on day 7, day 8 and day 9 and once on day 10 in the morning. The mice are sacrificed on day 10 in the afternoon.

c-Jun mRNA expression = experiment: Semi chronic inflammation of mouse ears, c-Jun mRNA (northern blot); assay type: in vivo, C57BL/6 mice
Protocol: as §1, §3
In the same experiment, the expression of c-Jun mRNA is determined by northern blot and expressed in percent of the vehicle controls.

humans = details: clinical trials by other authors; cited from earlier work
RXRγ = molecular target: T1, RXRγ (Homo sapiens, UniProt P48443); experiment: Retinoid binding assay, RXRγ; design: made in house; host or cells: E. coli; details: [3H] 9-cis retinoic acid 20 nM; read-out: Binding Affinity IC50 RXR γ
T1 sequence (P48443 1-463): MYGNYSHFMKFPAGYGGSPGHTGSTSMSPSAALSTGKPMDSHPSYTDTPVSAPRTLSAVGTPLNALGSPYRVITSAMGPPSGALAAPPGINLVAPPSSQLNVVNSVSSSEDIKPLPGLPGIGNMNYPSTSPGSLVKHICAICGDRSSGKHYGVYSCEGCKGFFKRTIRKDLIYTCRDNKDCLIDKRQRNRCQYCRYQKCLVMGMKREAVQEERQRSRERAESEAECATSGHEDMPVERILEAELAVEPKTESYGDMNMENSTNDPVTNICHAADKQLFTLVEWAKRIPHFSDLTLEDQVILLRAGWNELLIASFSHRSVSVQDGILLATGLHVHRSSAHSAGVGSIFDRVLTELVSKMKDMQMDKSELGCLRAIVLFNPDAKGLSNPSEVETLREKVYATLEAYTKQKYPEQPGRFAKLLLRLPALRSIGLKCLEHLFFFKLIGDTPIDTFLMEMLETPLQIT
Text: The DEF domains of RAR's and the full length RXR's, expressed in E.coli, are used to measure competitive retinoid binding. […] 9-cis retinoic acid (for RXR's), respectively. […] Separation of bound from free radioactivity is achieved by charcoal/dextran (RAR's) or by desalting columns (RXR's). […] Retinoid Activation Assays

[2] = tested on: myeloperoxidase (MPO) activity; experiment: Acute inflammation of mouse ears, MPO activity; assay type: in vivo, C57BL/6 mice; details: TPA 0.005% alone, topical, 4 d
Protocol: as §1, §2
The anti-inflammatory effect of topical RXR antagonist compound 15 is tested by determination of myeloperoxidase activity in % of vehicle treated controls. For induction of inflammation 9-cis RA or TPA are applied topically to the skin, daily for 4 days. The RXR antagonist compound 15 (see Table 1) is administered topically one hour after the application of the inflammation inducing agent. The mice are sacrified 24 hours after the last treatment.

[3] = TPA 0.005% + test compound 0.05% topical
[4] = TPA 0.005% + test compound 0.05%

Which “MPO activity (% vehicle treated mice)” value [1, 3] does the source give for `CCC(=O)O[C@]1(C(=O)CCl)[C@@H](C)C[C@H]2[C@@H]3CCC4=CC(=O)C=C[C@]4(C)[C@@]3(F)[C@@H](O)C[C@@]21C` here?
Its value is 239 ± 43 % vehicle treated mice.

What about the “c-Jun mRNA expression (% of vehicle treated mice)” value (c-Jun mRNA expression; [4]) of the same compound?
Its value is 43 % of vehicle treated mice.

Which “MPO activity (% vehicle treated mice)” value ([1]; At RA 0.05% alone, topical) does the source give for `CC1=C(/C=C/C(C)=C/C=C/C(C)=C/C(=O)O)C(C)(C)CCC1` [At RA, all-trans retinoic acid] here?
Its value is 1371 ± 345 % vehicle treated mice.

With `Cc1cc2c(cc1C1(c3ccc(C(=O)O)cn3)CC1)C(C)(C)CCC2(C)C` [Compound 3, 6-[1-(3,5,5,8,8-Pentamethyl-5,6,7,8-tetrahydro-naphthalen-2yl)-cyclopropyl]-nicotinic acid, reference compound] as the compound, how does the “Serum lipids in clinical trials (humans)” value (humans) read?
The value was “marked triglyceridemia”.

What about the IC50 (RXRγ) of the same compound?
The IC50 was 0.09 µM.

Which results are given for `CCCCCCCCCCCCCC(=O)O[C@@H]1[C@@H](C)[C@@]2(O)[C@@H](C=C(CO)C[C@]3(O)C(=O)C(C)=C[C@@H]23)[C@@H]2C(C)(C)[C@]12OC(C)=O` [TPA, 12-O-tetradecanoylphorbol-13-acetate]?
MPO activity (% vehicle treated mice) ([1]; TPA 0.005% alone, topical): 572 ± 61 % vehicle treated mice; MPO activity (% vehicle treated mice) [2]: 376 ± 72 % vehicle treated mice; c-Jun mRNA expression (% of vehicle treated mice) (c-Jun mRNA expression; TPA 0.005% alone): 163 % of vehicle treated mice

Which “MPO activity (% vehicle treated mice)” value [1, 3] does the source give for betamethasone propionate here?
Its value is 257 ± 38 % vehicle treated mice.

And the “c-Jun mRNA expression (% of vehicle treated mice)” value (c-Jun mRNA expression; [4])?
The value was 24 % of vehicle treated mice.
